pIC50: −log10 of the molar value. Like-named read-outs stand apart in the source and are kept apart here.
Experiments:
Type in all cases: cell-based
[1] = test system: NSCLC A549 lung cancer cells; test: XTT assay, cell proliferation after 72 hours incubation, IC50
Experimental: (§1) Example 10 (see also FIG. 10) is a study to determine the effect of the combination of calcium blockers on the proliferation of cancer cells. NSCLC A549 lung cancer cells were incubated with various concentrations of a combination of calcium blockers ranging from 1 μM to 50 μM. […] An XTT assay was then performed. The cell proliferation was then calculated. Results are representative of at least three independent experiments. IC50 was calculated from the % inhibition data.

[2] = test system: A549 lung cancer cells; test: XTT assay, cell proliferation 48 hours after addition; conditions: increasing concentrations
Experimental: An XTT assay was performed 48 hours after the addition of nitrendipine at increasing concentrations. The cell proliferation was then calculated. Results are representative of at least three independent experiments. The results are illustrated in FIG. 1B. […] Without limitation by theory, it is theorized that nitrendipine lethally flooded the cells with calcium at the noted concentrations.
(§2) An XTT assay was performed 48 hours after the addition of nicardipine at increasing concentrations. The cell proliferation was then calculated. Results are representative of at least three independent experiments. The results are illustrated in FIG. 2B. […] Without limitation by theory, it is theorized that the nicardipine-initiated block of the entry of extracellular free calcium inhibits the cell's ability to undergo or successfully finish cytokinesis, and this may lead to cell death.
as §2, with “nisoldipine” for “nicardipine”, “4B.” for “2B.”, “nisoldipine-initiated” for “nicardipine-initiated”, “cytokinesis” for “cytokinesis,”
as §2, with “The” for “An XTT assay was performed 48 hours after the addition of nicardipine at increasing concentrations. The”, “7B.” for “2B.”, “loperamide-initiated” for “nicardipine-initiated”

[3] = test system: A549 lung cancer cells; test: Intracellular free calcium, Fura-2-AM fluorescence measurement
Experimental: The intracellular free calcium measurement was done using Fura-2-AM fluorescence measurement. […] Ionomycin was used as the positive control for stimulation of calcium entry. Calcium was removed from the medium at the end of each experiment via addition of EGTA or replacement of the medium with calcium free medium. The calculation of the absolute calcium concentration was performed using a standard calcium curve. An average of 15 cells is shown.
The intracellular free calcium measurement was done using Fura-2-AM fluorescence measurement. […] The calculation of the absolute calcium concentration was performed using a standard calcium curve. An average of 15 cells is shown.
The intracellular free calcium measurement was done using Fura-2-AM fluorescence measurement. […] Ionomycin was used as the positive control for stimulation of calcium entry.

[4] = test system: NSCLC A549 lung cancer cells; test: XTT assay, cell proliferation after 24 hours incubation
Experimental: Example 6 was a study to determine the effect of treatment with nitrendipine and the dihydropyridine of Formula IV above on the proliferation of cancer cells. NSCLC A549 lung cancer cells were incubated with various concentrations of nitrendipine and the dihydropyridine of Formula IV ranging from 1 μM to 100 μM. 5000 cells were plated in RPMI medium per well and incubated with either the individual drugs for 24 hours. An XTT assay was then performed. The cell proliferation was then calculated. FIG. 6 is a graphical representation of the results.
as §1, with “8 was” for “10 (see also FIG. 10) is”, “μM. In this specific example, the combination of loperamide and the dihydropyridine, nitrendipine, was used.” for “μM.”, “FIG. 8 is a graphical representation of” for “IC50 was calculated from”, “results.” for “% inhibition data.”
as §1, with “9” for “10 (see also FIG. 10)”, “μM. In this specific example, the combination of loperamide and the dihydropyridine, nicardipine, was used.” for “μM.”, “FIG. 9 is a graphical representation of” for “IC50 was calculated from”, “results.” for “% inhibition data.”

[5] = Homo sapiens, A549, compound alone plus DMSO, 72 hours, read-out: Plus DMSO (Control), IC-50
[6] = read-out: Plus Loperamide, IC-50, in combination with loperamide (5 uM per FIG. 10), 72 hours
[7] = compound alone plus DMSO, 72 hours

Question: What does the source list for COC(=O)C1=C(C)NC(C)=C(C(=O)OC(C)(C)CN(C)CCC(c2ccccc2)c2ccccc2)C1c1cccc([N+](=O)[O-])c1 (racemic) [Lercanidipine]?
Answer: pIC50 [1, 5]: 5.11; pIC50 [1, 6]: 5.40

Question: CCOC(=O)C1=C(C)NC(C)=C(C(=O)OC)C1c1cccc([N+](=O)[O-])c1 (racemic) [Nitrendipine, (RS)-3-Ethyl 5-methyl 2,6-dimethyl-4-(m-nitrophenyl)-1,4-dihydropyridine-3,5-dicarboxylate] was tested. Which “percentage of cell growth” value [2] did it give?
Answer: decreases as the concentration of nitrendipine is increased

Question: What about the “effect on intracellular free calcium” value ([3]; 1 μM and 5 μM treatments) of the same compound?
Answer: functions as an agonist for the entry of extracellular calcium

Question: And the “concentration of intracellular calcium versus positive control (ionomycin)” value ([3]; 5 μM treatment)?
Answer: greater than that of the positive control

Question: And the “effect on intracellular free calcium” value ([3]; consecutive treatments with nitrendipine and nicardipine, 20 μM each)?
Answer: floods the cells with calcium

Question: What about the Avg. % proliferation ([4]; Example 6, 1 μM) of the same compound?
Answer: 86.24%

Question: And the Avg. % proliferation ([4]; Example 6, 5 μM)?
Answer: 87.19%

Question: And the Avg. % proliferation ([4]; Example 6, 10 μM)?
Answer: 75.97%

Question: And the Avg. % proliferation ([4]; Example 6, 50 μM)?
Answer: 52.21%

Question: And the Avg. % proliferation ([4]; Example 6, 100 μM)?
Answer: 24.42%

Question: What about the Avg. % proliferation ([4]; Example 8, 1 μM) of the same compound?
Answer: 102.33%

Question: What about the Avg. % proliferation ([4]; Example 8, 5 μM) of the same compound?
Answer: 93.35%

Question: And the Avg. % proliferation ([4]; Example 8, 10 μM)?
Answer: 102.58%

Question: And the Avg. % proliferation ([4]; Example 8, 50 μM)?
Answer: 71.43%

Question: CCOC(=O)C1=C(COCCN)NC(C)=C(C(=O)OC)C1c1ccccc1Cl (centres unmarked) [Amlodipine] was tested. Which pIC50 [1, 5] did it give?
Answer: 4.66

Question: How did the pIC50 [1, 5] turn out when CC1=C(C(=O)OC(C)C)C(c2cccc([N+](=O)[O-])c2)C(C(=O)OC2CN(C(c3ccccc3)c3ccccc3)C2)=C(N)N1 (centres unmarked) [Azelnidipine] was run?
Answer: 5.07

Question: And the pIC50 [1, 6]?
Answer: 5.32

Question: With COC(=O)C1=C(C)NC(C)=C(C(=O)OC2CCCN(Cc3ccccc3)C2)C1c1cccc([N+](=O)[O-])c1 (centres unmarked) [Benidipine] as the compound, how does the pIC50 [1, 5] read?
Answer: 4.74

Question: How did the pIC50 [1, 5] turn out when CCCC(=O)OCOC(=O)C1=C(C)NC(C)=C(C(=O)OC)C1c1cccc(Cl)c1Cl (centres unmarked) [Clevidipine] was run?
Answer: 4.64

Question: With COCCOC(=O)C1=C(C)NC(C)=C(C(=O)OC/C=C/c2ccccc2)C1c1cccc([N+](=O)[O-])c1 (centres unmarked) [Clinidipine] as the compound, how does the pIC50 ([1]; read-out: Plus DMSO (Control), IC-50) read?
Answer: 4.39

Question: Which “Plus DMSO (Control), IC-50” value [1, 7] does the source give for COc1ccc([C@@H]2Sc3ccccc3N(CCN(C)C)C(=O)[C@@H]2OC(C)=O)cc1 [Diltiazem] here?
Answer: No Activity

Question: CC1=C(C(=O)OCCN(Cc2ccccc2)c2ccccc2)C(c2cccc([N+](=O)[O-])c2)C(P2(=O)OCC(C)(C)CO2)=C(C)N1 (centres unmarked) [Efonidipine] was tested. Which pIC50 [1, 5] did it give?
Answer: 4.99

Question: With CCOC(=O)C1=C(C)NC(C)=C(C(=O)OC)C1c1cccc(Cl)c1Cl (centres unmarked) [Felodipine] as the compound, how does the pIC50 [1, 5] read?
Answer: 4.59

Question: With CCOC(=O)C1=C(C)NC(C)=C(C(=O)OC)C1c1ccccc1 (centres unmarked) [Formula IV, 5-O-ethyl 3-O-methyl 2,6-dimethyl-4-phenyl-1,4-dihydropyridine-3,5-dicarboxylate] as the compound, how does the “effect on intracellular free calcium” value ([3]; 5 μM and 50 μM treatments) read?
Answer: blocks the influx of extracellular calcium

Question: What about the Avg. % proliferation ([4]; Example 6, 5 μM) of the same compound?
Answer: 96.4%

Question: And the Avg. % proliferation ([4]; Example 6, 10 μM)?
Answer: 104.2%

Question: And the Avg. % proliferation ([4]; Example 6, 50 μM)?
Answer: 79.06%

Question: And the Avg. % proliferation ([4]; Example 6, 100 μM)?
Answer: 67.8%

Question: With COC(=O)C1=C(C)NC(C)=C(C(=O)OC(C)C)C1c1cccc2nonc12 (centres unmarked) [Isradipine] as the compound, how does the pIC50 [1, 5] read?
Answer: 4.59

Question: How did the pIC50 [1, 5] turn out when CCOC(=O)C1=C(C)NC(C)=C(C(=O)OCC)C1c1ccccc1/C=C/C(=O)OC(C)(C)C [Lacidipine] was run?
Answer: 4.80

Question: CN(C)C(=O)C(CCN1CCC(O)(c2ccc(Cl)cc2)CC1)(c1ccccc1)c1ccccc1 [Loperamide, 4-[4-(4-Chlorophenyl)-4-hydroxypiperidin-1-yl]-N,N-dimethyl-2,2-diphenylbutanamide] was tested. Which “percentage of cell growth” value [2] did it give?
Answer: decreases as the concentration of loperamide is increased

Question: And the “effect on intracellular free calcium” value ([3]; 5 μM and 50 μM treatments)?
Answer: blocks the influx of extracellular calcium

Question: What about the Avg. % proliferation ([4]; Example 8, 1 μM) of the same compound?
Answer: 98.07%

Question: What about the Avg. % proliferation ([4]; Example 8, 5 μM) of the same compound?
Answer: 99.77%

Question: What about the Avg. % proliferation ([4]; Example 8, 10 μM) of the same compound?
Answer: 96.09%

Question: And the Avg. % proliferation ([4]; Example 8, 50 μM)?
Answer: 34.04%

Question: What about the Avg. % proliferation ([4]; Example 9, 1 μM) of the same compound?
Answer: 92.73%

Question: And the Avg. % proliferation ([4]; Example 9, 5 μM)?
Answer: 86.97%

Question: And the Avg. % proliferation ([4]; Example 9, 10 μM)?
Answer: 90.33%

Question: What about the Avg. % proliferation ([4]; Example 9, 50 μM) of the same compound?
Answer: 32.03%

Question: COC(=O)C1=C(C)NC(C)=C(C(=O)OCCN2CCN(C(c3ccccc3)c3ccccc3)CC2)C1c1cccc([N+](=O)[O-])c1 (centres unmarked) [Manidipine] was tested. Which pIC50 [1, 5] did it give?
Answer: 5.09

Question: COC(=O)C1=C(C)NC(C)=C(C(=O)OCCN(C)Cc2ccccc2)C1c1cccc([N+](=O)[O-])c1 (centres unmarked) [Nicardipine, 2-[benzyl(methyl)amino]ethylmethyl-2,6-dimethyl-4-(3-nitrophenyl)-1,4-dihydropyridine-3,5-dicarboxylate] was tested. Which Avg. % proliferation ([4]; Example 9, 1 μM) did it give?
Answer: 99.90%

Question: What about the Avg. % proliferation ([4]; Example 9, 5 μM) of the same compound?
Answer: 100.23%

Question: And the Avg. % proliferation ([4]; Example 9, 10 μM)?
Answer: 86.20%

Question: What about the Avg. % proliferation ([4]; Example 9, 50 μM) of the same compound?
Answer: 32.97%

Question: What about the pIC50 [1, 5] of the same compound?
Answer: 4.86

Question: And the pIC50 [1, 6]?
Answer: 5.17

Question: COC(=O)C1=C(C)NC(C)=C(C(=O)OC)C1c1ccccc1[N+](=O)[O-] [Nifedipine] was tested. Which “Plus DMSO (Control), IC-50” value [1, 7] did it give?
Answer: No Activity

Question: How did the pIC50 ([1]; Homo sapiens, A549, 72 h, read-out: Plus DMSO (Control), IC-50) turn out when COC(=O)C1=C(C)NC(C)=C(C(=O)OCCCN2CCC(c3ccccc3)(c3ccccc3)CC2)[C@H]1c1cccc([N+](=O)[O-])c1 [Niguldipine] was run?
Answer: 5.27

Question: And the pIC50 ([1]; read-out: Plus Loperamide, IC-50)?
Answer: 5.51

Question: How did the pIC50 [1, 5] turn out when COC(=O)C1=C(C#N)NC(C)=C(C(=O)OC(C)C)C1c1cccc([N+](=O)[O-])c1 (centres unmarked) [Nilvadipine] was run?
Answer: 4.75

Question: Which “Plus DMSO (Control), IC-50” value [1, 7] does the source give for COCCOC(=O)C1=C(C)NC(C)=C(C(=O)OC(C)C)C1c1cccc([N+](=O)[O-])c1 (centres unmarked) [Nimodipine] here?
Answer: No Activity

Question: For COc1ccc(CCN(C)CCCC(C#N)(c2ccc(OC)c(OC)c2)C(C)C)cc1OC (centres unmarked) [Verapamil], which “Plus DMSO (Control), IC-50” value [1] is on record?
Answer: No Activity

Question: Which “percentage of cell growth” value [2] does the source give for COC(=O)C1=C(C)NC(C)=C(C(=O)OCC(C)C)C1c1ccccc1[N+](=O)[O-] (centres unmarked) [nisoldipine, isobutyl methyl 2,6-dimethyl4-(2-nitrophenyl)-1,4-dihydropyridine-3,5-dicarboxylate] here?
Answer: decreases as the concentration of nisoldipine is increased

Question: What about the “effect on intracellular free calcium” value ([3]; 5 μM and 10 μM treatments) of the same compound?
Answer: blocks the influx of extracellular calcium
